# Reference: US12667569B2, “Use of sepiapterin and metabolites thereof to treat radiation exposure” (PTC Therapeutics MP, Inc., priority 2019, dated 2026)
# “Also recorded” adds a separate entry of the source.
# Key:
# [1] = system: C57L/J mice; assay: Echocardiography: contractile reserve (isoproterenol response), myocardial performance index, IRT after irradiation; format: in vivo
# Procedure: Both male and female C57L/J wild-type 6-8-week-old mice were purchased from Jackson Laboratory (Bar Harbor, ME). The mice were housed with a 12:12 h light-dark schedule and access to water and food ad libitum. The experiments were conducted under the guidelines of laboratory animals for biomedical research published by the National Institutes of Health (rev. 2011). The study protocol was approved by the Institutional Animal Care and Use Committee of Virginia Commonwealth University.
# (§1) Equal numbers of male and female mice were distributed to each group. While under ketamine/xylazine anesthesia (100 mg/kg and 10 mg/kg, respectively) mice received 5 Gy total body irradiation (TBI), immediately followed by a top-up dose of 6.5 Gy to the thorax, for a total thoracic dose of 11.5 Gy, using a Varian 21 EX LINAC (Palo Alto, CA). Twenty-four hours post-irradiation, mice were treated once daily for 6 days by oral gavage with 1 mg/kg sepiapterin or 5 mg/kg BH4 dissolved in water (FIG. 1).
# All mice underwent transthoracic echocardiography at baseline (before irradiation (IR)), at 8, 30, 60, 90 and 180 days, under light anesthesia (30 mg/kg pentobarbital sodium). Echocardiography was performed with the Vevo770 imaging system (VisualSonics, Toronto, Ontario, Canada) and a 30-MHz probe. The heart was visualized in B-mode from parasternal short-axis and apical views. The left ventricular (LV) end-diastolic diameter (EDD), LV end-systolic diameter (ESD), LV anterior wall diastolic thickness (AWDT), and LV posterior wall diastolic thickness (PWDT), LV anterior wall systolic thickness (AWST), and LV posterior wall systolic thickness (PWST) were measured at M-mode, according to the American Society of Echocardiography recommendations. LV ejection fraction (EF), and LV mass were calculated from the measurements of wall thickness and chamber diameters. The LVEF was derived using the Teicholz formula (LVEF=[LVEDD3−LVESD3]/LVEDD3), as previously described. The transmitral LV outflow tract Doppler spectra (E, A, ET) was recorded from an apical four-chamber view, and the myocardial performance index (MPI) was calculated as the […] isovolumetric contraction time (ICT) and isovolumetric relaxation time (IRT) divided by the ejection time (ED. The investigators performing and reading the echocardiograms were blinded to the treatment allocation. A beta-adrenergic agonist, isoproterenol (Sigma Aldrich, St. Louis, MO, USA) 20 ng/mouse, was used to assess cardiac contractility in irradiated mice without SP treatment. Cardiac contractility (contractile reserve) was expressed as percentage change in LVEF measured at rest (LVEFr) and 3 min after isoproterenol injection (LVEFi) and calculated as [(LVEFi−LVEFr)/LVEFr]*100. Measurements of the contractile reserve were taken at baseline, 8, 30, 60, 90 and 180 days after IR. Echocardiogram assessment was performed by an operator blinded to treatment allocation.
# [2] = system: C57L/J mice; assay: Assessment of lung injury by breathing rate (MouseOx) after irradiation; format: in vivo; settings: irradiated mice
# Procedure: as §1
# The breathing rate was measured every other week starting in week 6 using the Mouse Ox system (STARR Life Sciences Corp., Allison Park, PA). The animal was placed under ketamine/xylazine anesthesia and shaved in the area of analysis. 10 min post injection the animal was placed in a supine position with the sensor clipped to the upper thigh. The breathing rate was recorded for 3 min. The breathing rate was calculated using an algorithm in the Mouse Ox software.
# [3] = system: C57L/J mice; assay: Survival over 180 days post IR (Kaplan Meyer); format: in vivo
# Procedure: as §1
# To determine whether the improved cardiopulmonary function impacted overall survival the mice were followed over 180 days post IR.
# [4] = system: exosomal miRNAs; assay: Serum exosomal miRNA expression after irradiation; format: in vivo, mice
# Procedure: Blood was collected by cardiac puncture using EDTA vials. Blood samples were centrifuged 3,000×g for 25 minutes, and plasma fraction was aliquoted and saved in a vapor phase of liquid nitrogen. Exosomes were isolated from the plasma of mice at the time points shown in FIGS. 6A-6C using an Exosome isolation kit from 101Bio. Exosome concentrations were quantified by EXOCET Exosome Quantitation Kit (System Biosciences). Equal exosome number from 5 animals were combined for each time point, and total exosomal RNA was extracted by using miRNeasy Micro Kit (QIAGEN). For the miRNAs expression profiling the miRCURY LNA™ Universal RT microRNA PCR assay (QIAGEN) and ExiLENT SYBR® Green Maser Mix (QIAGEN) were used. The initial estimation of exosomal miRNAs expression was performed by using Serum/Plasma LNA™ miRNA PCR Panel (Cat. #YAHS-106Y. QIAGEN) on the QuantStudio 5 RT-PCR machine (Applied Biosystems).
# The first group included let-7a-5p, miR-1, miR-106b-3p, miR-106b-5p, miR-126-3p, miR-181a-5p, miR-335-3p, and miR-335-5p. […] The second group included let-7g-5p, let-7i-5p, and miR-16-5p. There were no significant differences between males and females both in terms of exosomal miRNA expression altered by IR or the effects of sepiapterin on miRNA expression.
# [5] = system: cytokines' mRNAs in lung tissue; assay: Cytokine mRNA expression (qPCR) in lung tissue after irradiation; format: in vivo, mice
# Procedure: (§2) Total RNA was isolated from the lung and heart tissue samples following the manufacturers instructions with the RNeasy Mini kit (Qiagen). The RNA concentration was evaluated by using a NanoDrop ND-1000 spectrophotometer (Thermo Scientific). RNA purity was assessed by the ratios of A260/A280 and A260/A230. RNA integrity was evaluated by the ratio of 28S/18S ribosomal RNA (rRNA) and the RNA integrity number (RIN) using an Agilent 2100 BioAnalyzer (Agilent Technologies). cDNA synthesis and genomic DNA elimination were performed by using RT2 First Strand Kit (QIAGEN). Samples were amplified using RT2 SYBR® Green qPCR Mastermix probes from QIAGEN on the QuantStudio 5 RT-PCR machine (Applied Biosystems). The following RT2 qPCR Primer Assays (QIAGEN) were used: Mouse Actin-β (NM_007393), Mouse Bmp2 (NM_007553), Mouse Ccl2 (NM_011333), Mouse Ctgf (NM_010217), Mouse IL-1β (NM_008361), Mouse IL-6 (NM_031168), Mouse IL-10 (NM_010548), Mouse IL-17α (NM_010552), Mouse Runx2 (NM_001145920), Mouse Spp1 (NM_001204201), Mouse TGF-β1 (NM_011577), Mouse Trim72 (NM_001079932).
# [6] = system: cytokines' mRNAs in heart tissue; assay: Cytokine mRNA expression (qPCR) in heart tissue after irradiation; format: in vivo, mice; settings: 8 days, 30 days, 16 weeks after IR, SP vs vehicle
# Procedure: as §2
# [7] = system: plasma IL-6, fibrinogen, neutrophil elastase, C-reactive protein; assay: Plasma ELISA of IL-6, fibrinogen, neutrophil elastase, C-reactive protein after irradiation; format: in vivo, mice
# Procedure: At the time of sacrifice, blood was obtained by heart puncture into EDTA containing tubes and centrifuged at 3000 rpm for 25 mins to isolate the plasma. The following ELISA plates from Abcam were used for analysis: fibrinogen (ab213478), neutrophil elastase (ab252356), C-reactive protein (ab157712) and IL-6 (ab100713). Plasma samples were processed and ELISA kits were run according to manufacturer recommendations. All cytokines were reported with an absolute unit. Key molecular players of the coagulation cascade like tissue factor, thrombin, and fibrinogen are epidemiologically and mechanistically linked with an inflammatory component. Genetic and pharmacologic studies have unraveled pivotal roles for fibrinogen in determining the extent of local or systemic inflammation. Neutrophil elastase, a serine protease present in the azurophil granules of neutrophils, is released in an inflammatory state and disintegrates extracellular matrices due to its low substrate specificity, resulting in tissue injury. Neutrophil elastase is one of the most destructive enzymes in the body. Once unregulated, this enzyme disturbs the function of the lung permeability barrier and induces the release of pro-inflammatory cytokines with stimulation of acute lung injury. […] High levels of IL-6 in blood plasma may exacerbate the inflammatory response in the lung tissue, which ultimately causes IL-6 leakage to bronchoalveolae and further lung damage. High levels of IL-6 in the lung tissue may attract more inflammatory cells such as neutrophils, monocytes, macrophages to the injured local lung which ultimately causes serious damage to the lung and leads to chronic fibrosis. An acute raise of IL-6 in plasma can lead to increases in C Reactive Protein (CRP). C Reactive Protein (CRP) is produced by the liver and is a biomarker for general stress response to inflammation or infectious agents. It was shown that serum CRP level may be an effective indicator for predicting the occurrence of radiation pneumonitis and valuable factor for evaluating radiation-induced lung-injury extent.
# [8] = system: cytokines' mRNAs in lung tissue; assay: Cytokine mRNA expression (qPCR) in lung tissue after irradiation; format: in vivo, mice; settings: 16 weeks after IR, mean±SD, vehicle 4.25±0.537
# [9] = irradiated mice, BH4 5 mg/kg oral once daily 6 days from 24 h post-IR
# [10] = 30 days after IR, SP-treated vs vehicle-treated
structure (smiles),measurement,setting,value
"C[C@H](O)[C@H](O)[C@H]1CNc2[nH]c(N)nc(=O)c2N1 [BH4, Tetrahydrobiopterin]",contractile reserve,[1]; [9],enhanced contractile reserve
same,systolic and diastolic function,[1]; [9],improved systolic and diastolic function
same,development of lung injury,"[2]; 5 mg/kg BH4 for 6 days, vs vehicle",significant delay in the development of lung injury
same,lung function (breathing rate),"[2]; 5 mg/kg BH4 for 6 days, vs vehicle, 5 mg/kg",significantly reduced impairment of lung function at all points measured; also recorded: decreasing breathing frequency
same,survival,"[3]; irradiated mice, oral BH4 starting 24 hours after radiation",increased survival
same,"exosomal expression of miR-15b-3p, miR-106a-5p, miR-133b, miR-136-5p, miR-451a, miR-1, miR-335-3p, let-7d-3p, let-7c-5p","[4]; irradiated mice, BH4 treatment (FIG. 6A)",increases in expression
"C[C@H](O)C(=O)C1=Nc2c([nH]c(N)nc2=O)NC1 [SP, Sepiapterin]","systolic and diastolic function response, evaluated by sex","[1]; irradiated male vs female mice, 1 mg/kg SP",no significant differences in heart function response
same,"mitigation of loss in contractile reserve, evaluated by sex","[1]; irradiated male vs female mice, SP 1 mg/kg",equally effective in mitigating this loss in contractile reserve
same,contractile reserve (response to isoproterenol),"[1]; irradiated mice (5 Gy TBI + 6.5 Gy thorax), SP 1 mg/kg oral once daily 6 days from 24 h post-IR, up to 180 days, vs vehicle",restore the response to beta-adrenergic stimulation by isoproterenol; also recorded: enhanced contractile reserve; also recorded: blunted the drop in the contractile reserve at all the time points
same,myocardial performance index (Tei index) and isovolumetric relaxation time (IRT); systolic and diastolic function,"[1]; irradiated mice, SP 1 mg/kg oral once daily 6 days from 24 h post-IR, up to 180 days, vs vehicle",ameliorating the progressive increase in myocardial performance index and IRT; also recorded: improved systolic and diastolic function; also recorded: blunted the increase in the Tei index and IRT at all the time points
same,time to development of lung injury,"[2]; 1 mg/kg/day SP for 6 days, vehicle 10 weeks",14 weeks
same,lung function (breathing rate),"[2]; 1 mg/kg/day SP for 6 days, vs vehicle, 1 mg/kg/day",significantly reduced impairment of lung function at all points measured; also recorded: decreasing breathing frequency; also recorded: significantly improved pulmonary function at all points measured
same,mice alive at 180 days,"[3]; 11.5 Gy total thoracic dose, 1 mg/kg/day SP for 6 days, untreated 40%",71%
same,overall survival,"[3]; 11.5 Gy total thoracic dose, 1 mg/kg/day SP for 6 days, vs irradiated without treatment, 1 mg/kg/day",significantly delayed and overall improved survival; also recorded: increased survival
same,"exosomal expression of let-7a-5p, miR-1, miR-106b-3p, miR-106b-5p, miR-126-3p, miR-181a-5p, miR-335-3p, miR-335-5p",[4]; [10],significantly lower in vehicle-treated animals comparing with SP-treated animals
same,"exosomal expression of let-7g-5p, let-7i-5p, miR-16-5p",[4]; [10],significantly higher in vehicle-treated animals comparing with SP-treated animals
same,relative expression of TGF-β1 mRNA,"[5]; 16 weeks after IR, mean±SD, vehicle 3.26±0.339",1.53±0.367
same,relative expression of IL-17A mRNA,"[5]; 16 weeks after IR, mean±SD, vehicle 4.5±0.824",2.12±1.173
same,relative expression of IL-6 mRNA,"[5]; 16 weeks after IR, mean±SD, vehicle 28.85±5.987",17.05±4.12
same,relative expression of IL-17A mRNA,"[5]; 8 days after IR, mean±SD, vehicle 9.19±2.783",2.71±1.874
same,relative expression of IL-6 mRNA,"[5]; 8 days after IR, mean±SD, vehicle 16.88±4.91",1.36±0.509
same,relative expression of IL-1β mRNA,"[5]; 8 days after IR, relative to non-irradiated control, mean±SD, vehicle 2.9±0.649",1.54±0.825
same,relative expression of Ccl2 mRNA,"[5]; 30 days after IR, SP vs vehicle",no significant difference between Vehicle-treated and SP-treated animal groups
same,relative expression of IL-1β mRNA,"[5]; 30 days after IR, mean±SD, vehicle 3.39±0.532",1.66±0.51
same,relative expression of IL-17A mRNA,"[5]; 30 days after IR, mean±SD, vehicle 5.65±2.263",1.49±0.379
same,relative expression of IL-6 mRNA,"[5]; 30 days after IR, mean±SD, vehicle 9.09±0.533",4.96±0.905
same,"expression of all evaluated cytokines (Bmp2, Ccl2, Ctgf, IL-1β, IL-6, IL-10, IL-17A, IL-33, Runx2, Spp2, TGF-β1, Trim72)",[6],no significant difference in expression between Vehicle-treated and SP-treated groups
same,plasma level of IL-6,"[7]; 4 days after IR, vehicle 304.05±153.23",97.00 ± 45.71 pg/mL
same,plasma level of IL-6,"[7]; 8 days after IR, vehicle 606.09±72.72",49.85 ± 39.36 pg/mL
same,plasma level of fibrinogen,"[7]; 8 days after IR, vehicle 948.77±98.54",332.38 ± 109.02 µg/mL
same,plasma level of neutrophil elastase,"[7]; 180 days after IR, vehicle 25.21±6.54",12.15 ± 2.87 ng/mL
same,plasma level of IL-6,"[7]; 180 days after IR, vehicle 197.22±55.55",40.06 ± 43.26 pg/mL
same,plasma C reactive protein,"[7]; any time-point after IR, SP vs vehicle",did not demonstrate significant difference
same,relative expression of Spp2 mRNA,[8],2.38±0.211
